Measured values published in patent publication US9737552B2, “Treatment of cognitive impairment in a subject with a neurological autoimmune disease” (The Johns Hopkins University, priority 2010, dated 2017).
Read-outs that look alike come from different tables or passages of the source.

Assays:
EAE mice [1] = test: Barnes maze testing in EAE mice; type: in vivo
Protocol: To measure cognitive function in EAE mice, Barnes maze testing was conducted using the immunized mice, beginning approximately 4 weeks post-immunization. […] Animals were trained on the Barnes maze (AccuScan Instruments, Columbus, Ohio) for 4 trials per day (inter-trial interval >30 minutes) for 4 consecutive days. Briefly, mice were placed in the center of the maze platform under an opaque enclosed 3″×5″× container. After 15 seconds the container was removed and the mice were free to move in the maze. A target box was placed under 1 of the 40 holes around the maze perimeter, and the location of the target box, along with the location of 4 equally spaced polarizing visual cues and one lamp, remained the same throughout all trials. Mice were given up to 3 minutes to locate and enter the target box, and were gently guided into the target box if it was not found within the 3 minute limit. Following entry into the target box, the box was covered and the mouse remained in the box for 30 seconds before transfer to a holding cage. Paths were recorded and latency to the target hole, path efficiency, speed, and directional times were calculated using ANY-maze software (Stoelting, Wood Dale, Ill.).

EAE mice [2] = test: EAE disease score in MOG35-55 immunized mice; type: in vivo; conditions: 100 mg/kg daily i.p. from immunization until sacrifice; vs Control mice
Protocol: The effects of GCPII inhibition were tested on an animal model of multiple sclerosis (experimental autoimmune encephalomyelitis, or “EAE”). To induce EAE, mice were given two 50 μL subcutaneous flank injections of myelin oligodendrocyte glycoprotein 35-55 peptide fragment (MOG35-55) dissolved in 50 μL PBS emulsified in 50 μL IFA supplemented with 400 μg M. tuberculosis H37Ra, at a final concentration of 100 μg MOG35-55 per 100 μL total volume. At the time of MOG immunization and 2 days later, all EAE mice were administered intraperitoneal injections of 300 ng pertussis toxin in 100 μL PBS. Immunized mice were treated with either 2-PMPA or a vehicle control for the duration of the experiment. Vehicle (50 mM HEPES buffer) or 2-PMPA (100 mg/kg in vehicle at a pH of 7.4) was delivered daily via 0.1 mL intraperitoneal injections from the time of EAE immunization until sacrifice.

[3] = Mass spectrometry of 2-PMPA concentration in post-mortem brains of EAE mice; type: in vivo; conditions: mouse, ip, Mean±SEM, 100 mg/kg daily i.p., sacrifice 50 days after immunization
Protocol: (§1) To determine whether GCPII inhibition altered the levels of the enzyme's substrate (NAAG) or product (NAA), mass spectrometry was conducted in post-mortem brains of EAE mice either treated with 2-PMPA or a vehicle control. Animals were sacrificed by cervical dislocation 50 days after EAE immunization. Hippocampus, frontal lobe, and cerebellum structures were dissected, and NAA, NAAG, and 2-PMPA concentrations were measured via mass spectrometry. Briefly, NAAG and NAA in brain tissue homogenates were separated on a Waters Atlantis ODS column. NAA, NAAG, and the internal standard were monitored by tandem mass spectrometry with electrospray negative ionization. Linear calibration curves were generated over the range of 5-5000 ng/mL and converted to μg/g. For determination of 2-PMPA, separations were achieved on a Waters XTerra MS C18 column. 2-PMPA and the internal standard were monitored by tandem mass spectrometry with electrospray negative ionization. Linear calibration curves were generated over the 1-100 ng/mL range and converted to μg/g.

GCPII = test: Mass spectrometry of NAA and NAAG in post-mortem brains of EAE mice; type: in vivo; conditions: Mean±SEM, 50 days after EAE immunization
Protocol: as §1

EAE mice [4] = test system: EAE mice
Protocol: A separate cohort of 2-PMPA and Control EAE mice (n=6-7) were tested on the elevated plus maze 27 days after disease induction. Mice were placed in the center of the maze and given 5 minutes to freely explore the maze. Time spent in open and closed arms of the maze were tracked using ANY-maze software (Stoelting, Wood Dale, Ill.).

EAE mice [5] = test: Fear conditioning test in EAE mice; type: in vivo
Protocol: To measure fear memory and amygdala function in EAE mice, fear conditioning tests were performed. Following the Barnes maze testing, animals were given 1-2 weeks rest then subjected to fear conditioning. Briefly, animals were placed in a fear conditioning chamber for 240 seconds on 3 consecutive days. On day 1, a 2000 Hz tone was played for 28 seconds (seconds 180-208), immediately followed by a 2 second scrambled footshock (seconds 208-210). On day 2, animals were placed back in the same testing environment, but neither sound nor shock was administered. On days 3 and 5, mice were placed in a novel wooden box inside the fear conditioning chamber, and a 2000 Hz tone was played for 120 seconds (seconds 121-240). The duration of freezing behavior on each day was measured using FreezeScan software (Clever Sys Inc., Reston, Va.).

O=C(O)CCC(CP(=O)(O)O)C(=O)O (centres unmarked) [2-PMPA, 2-(phosphonomethyl)pentanedioic acid]
Primary latency, total latency and path efficiency on the first two days of Barnes maze testing (EAE mice [1]; 100 mg/kg daily i.p., vs vehicle): equal between groups
Path efficiency, first trial of day 4 compared to baseline (day 1, trial 1) (EAE mice [1]; Mean±SEM, 100 mg/kg daily i.p., p=0.0029 vs Control): −0.7276±0.0295
Primary latency, first trial of day 4 compared to baseline (day 1, trial 1) (EAE mice [1]; Mean±SEM, 100 mg/kg daily i.p., p=0.0072 vs Control): 167.4±1.187
Total latency, first trial of day 4 compared to baseline (day 1, trial 1) (EAE mice [1]; Mean±SEM, 100 mg/kg daily i.p., p=0.0171 vs Control): 167.4±1.187
Path efficiency, back-to-back trials on consecutive days (long-term memory) (EAE mice [1]; Mean±SEM, e.g. trial 4 of day 3 vs. trial 1 of day 4, p=0.020 vs controls): −0.1377±0.0937
Total latency, back-to-back trials on consecutive days (long-term memory) (EAE mice [1]; Mean±SEM, e.g. trial 4 of day 3 vs. trial 1 of day 4, p=0.021 vs controls): 13.14±7.69
Maximum speed in the maze (EAE mice [1]; vs control EAE group): No differences
Disease severity and progression, as measured by EAE disease scores (EAE mice [2]): did not differ
concentration at 50 days after EAE immunization ([3]; cerebellum, read-out: 2-PMPA in the cerebellum): 832 ± 56 ng/g
concentration at 50 days after EAE immunization ([3]; frontal cortex, read-out: 2-PMPA in the frontal cortex): 1190 ± 222 ng/g
concentration at 50 days after EAE immunization ([3]; hippocampus, read-out: 2-PMPA in the hippocampus): 835 ± 264 ng/g
NAAG concentration in the frontal cortex (GCPII; p=0.0002 vs control): 32.91 ± 0.93 µg/g
NAAG concentration in the cerebellum (GCPII; p=0.0655 vs control): 102.4 ± 2.3 µg/g
NAA in the hippocampus (GCPII; p=0.2895 vs control): 985.0 ± 48.12 µg/g
NAA in the frontal cortex (GCPII; p=0.3035 vs control): 1134 ± 45.65 µg/g
NAA in the cerebellum (GCPII; p=0.3053 vs control): 899.3 ± 19.66 µg/g
NAAG concentration in the hippocampus (GCPII; p=0.8575 vs control): 54.98 ± 2.037 µg/g
Time spent in the closed arms (EAE mice [4]): 224.2±10.07
Time spent in the open arms (EAE mice [4]): 34.10±9.22
Baseline freezing on Day 1 (EAE mice [5]; Day 1): < 20%
Cued freezing behavior on Day 3 (EAE mice [5]; Day 3, vs control): No differences
Cued freezing in response to the 120 second tone on Day 5 (EAE mice [5]; Day 5, specifically in the last 60 seconds, vs control): increased cued freezing
Contextual freezing on Day 2 (EAE mice [5]; Mean±SEM, Day 2, % time freezing (FIG. 5 legend)): 50.49±4.18
